Data set [1] concerns histamine-induced lethality. Description: Protecting activity against histamine-induced lethality (method similar to Labell & Tislow). It counts as in vivo, Hartley strain male guinea pigs. To be noted: for protecting activity against histamine-induced lethality in comparison with that of the compounds of the present invention: relative to compounds of the present invention; for ED50: Cavia porcellus, guinea pigs, oral, 1 hour before histamine 1.1 mg/kg into cephalic vein, survival after two hours, probit method. The method, then:
1. Protecting activity against histamine-induced lethality
(3) Homochlorcyclizine hydrochloride (reference compound)
The test was carried out by a method similar to Labell & Tislow method (cf. J. Pharmacol Exp. Ther., 113, 72, 1955). […] After one hour, histamine (1.1 mg/kg, in a physiological saline solution) was injected to the animals in cephalic vein. After two hours, the number of live guinea pigs was counted, and therefrom ED50 of the compounds was calculated according to probit method.

The next data set can be described thus: in vivo. To be noted: mouse, ddY male mice, oral, observed one week, Weil's method, read-out: Acute toxicity LD50. The method, then:
The same compounds as used in the above protecting activity against histamine were used.
The LD50 was calculated based on the number of dead mice within one week according to Weil's method.

Data set [2] has as its system hexobarbital-induced sleep. Briefly: Potentiating effect on hexobarbital-induced sleep in mice. It counts as in vivo. The source says:
Besides, the conventional antihistaminics have side-effect such as hypnotic activity.

Each structure is given as a SMILES string. Counter-ions that a name gives are not always drawn.

The LD50 is the dose at which mortality reaches 50%. One may read the ED50 as the midpoint of the dose-response relation.

On to `CN1CCN(c2nc3ccccc3n2Cc2ccccc2)CC1` [1-benzyl-2-(4-methyl-1-piperazinyl)benzimidazole, reference compound], for which the “protecting activity against histamine-induced lethality in comparison with that of the compounds of the present invention” value in data set [1] is given as “about one severals to one tenth or less”.
On the same count and under the same terms, to `CN1CCN(c2nc3ccccc3n2C)CC1` [1-methyl-2-(4-methyl-1-piperazinyl)benzimidazole, reference compound] belongs “about one severals to one tenth or less”.
The same measure, in the same setting: for `CN1CCN(c2nc3ccccc3[nH]2)CC1` [2-(4-methyl-1-piperazinyl)benzimidazole, reference compound] the value was “about one severals to one tenth or less”.
Turning to `C#CCOCCn1c(N2CCCN(C)CC2)nc2ccccc21` [Example 1, 1-[2-(propargyloxy)ethyl]-2-(4-methyl-1-homopiperazinyl)benzimidazole difumarate], the median lethal dose (LD50) at 168 h in “in vivo” worked out at 990 mg/kg. Further, in data set [1], the ED50 worked out at 0.0046 mg/kg.
Consider `C#CCOCCn1c(N2CCN(C)CC2)nc2ccccc21` [Example 2, 1-[2-(propargyloxy)ethyl]-2-(4-methyl-1-piperazinyl)benzimidazole.3/2fumarate], for which the “potentiating effect on hexobarbital-induced sleep” value (from here on “potentiating effect”) in data set [2] (50 mg/kg (p.o.)) is reported as “did not show such potentiating effect”. The LD50 at 168 h in the data set “in vivo” amounted to 818 mg/kg. In data set [1], this compound had an ED50 of 0.0047 mg/kg.
The corresponding values for `CCOCCn1c(N2CCCN(C)CC2)nc2ccccc21` [Example 3, 1-[2-(ethoxy)ethyl]-2-(4-methyl-1-homopiperazinyl)benzimidazole.difumarate] are “did not show such potentiating effect”, 628 mg/kg and 0.0047 mg/kg.
`C=CCOCCn1c(N2CCN(C)CC2)nc2ccccc21` [Example 4, 1-[2-(allyloxy)ethyl]-2-(4-methyl-1-piperazinyl)benzimidazole.3/2 fumarate]: the LD50 at 168 h in the data set “in vivo” was found to be 1640 mg/kg. In data set [1], it took a dose of 0.0058 mg/kg to reach the 50% effect level (ED50).
The like results for `CCOCCn1c(N2CCN(C)CC2)nc2ccccc21` [Example 5, 1-[2-(ethoxy)ethyl]-2-(4-methyl-1-piperazinyl)benzimidazole.3/2 fumarate] were, in that order, 1490 mg/kg and 0.007 mg/kg.
The corresponding values for `C=CCOCCn1c(N2CCCN(C)CC2)nc2ccccc21` [Example 6, 1-[2-(allyloxy)ethyl]-2-(4-methyl-1-homopiperazinyl)benzimidazole difumarate] are 904 mg/kg and 0.0088 mg/kg.
The corresponding values for `CCCOCCn1c(N2CCCN(C)CC2)nc2ccccc21` [Example 7, 1-[2-(n-propoxy)ethyl]-2-(4-methyl-1-homopiperazinyl)benzimidazole difumarate] are 884 mg/kg and 0.0095 mg/kg.
On to `CCOCCn1c(N2CCNCC2)nc2ccccc21` [Example 8, 1-[2-(ethoxy)ethyl]-2-(1-piperazinyl)benzimidazole.3/2 fumarate], for which the “potentiating effect” value in data set [2] (50 mg/kg (p.o.)) is “did not show such potentiating effect”. For the same compound, in “in vivo”, the LD50 at 168 h came to 2220 mg/kg. The compound also displayed a 50% effective dose (ED50) in data set [1] of 0.011 mg/kg.
As for `CCOCCn1c(N2CCN(CC)CC2)nc2ccccc21` [Example 9, 1-[2-(ethoxy)ethyl]-2-(4-ethyl-1-piperazinyl)benzimidazole.3/2 fumarate], the “potentiating effect” value in data set [2] (50 mg/kg (p.o.)) is recorded as “did not show such potentiating effect”. In addition, the LD50 at 168 h in “in vivo” was determined as 2640 mg/kg. In data set [1], it took a dose of 0.013 mg/kg to reach the 50% effect level (ED50).
With `CN1CCCN(c2nc3ccccc3n2CCOc2ccccc2)CC1` [Example 10, 1-[2-(phenoxy)ethyl]-2-(4-methyl-1-homopiperazinyl)benzimidazole difumarate], in the data set “in vivo”, the LD50 at 168 h was determined as 1010 mg/kg. The compound further had an ED50 in data set [1] of 0.014 mg/kg.
The corresponding values for `CCCOCCn1c(N2CCN(C)CC2)nc2ccccc21` [Example 11, 1-[2-(n-propoxy)ethyl]-2-(4-methyl-1-piperazinyl)benzimidazole.3/2 fumarate] are 2300 mg/kg and 0.015 mg/kg.
The like results for `CN1CCN(c2nc3ccccc3n2CCOc2ccccc2)CC1` [Example 12, 1-[2-(phenoxy)ethyl]-2-(4-methyl-1-piperazinyl)benzimidazole.3/2 fumarate] were, in that order, 1110 mg/kg and 0.017 mg/kg.
Take `CN1CCCN(C(c2ccccc2)c2ccc(Cl)cc2)CC1` (stereo not shown) [Homochlorcyclizine hydrochloride, reference compound]: the “potentiating effect” value in data set [2] (25 mg/kg (p.o.)) is on record as “remarkable potentiating effect”. Besides, the 50% lethal dose (LD50) at 168 h in “in vivo” is 382 mg/kg. The same compound registered an ED50 in data set [1] of 0.26 mg/kg.

Source of the values: patent US4430343A, “Benzimidazole derivatives, process for the preparation thereof and pharmaceutical composition containing the same” (Kanebo, Ltd., priority 1981, dated 1984).
